Measured values from patent US9796711B2, “Substituted pyrazolo[3,4-b]pyridin-6-carboxylic acids and method of use” (AbbVie S.àr.l., priority 2015, dated 2017).

Key:
[1] = molecular target: T1, ΔF508-CFTR (Homo sapiens, UniProt P13569, DEL508-508); experiment: CFTR cell surface levels using HRP-tagged ΔF508-CFTR expressing CFBE cells, in the presence of a co-corrector; assay type: cell-based; conditions: HRP-tagged ΔF508-CFTR expressing CFBE cells, in the presence of 3 μM co-corrector; for EC50: read-out: EC50
T1 construct: host or cells: CFBE41o-, doxycycline-inducible
Outline: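 Cells were seeded with 0.5 μg/mL doxycycline and held 68 h at 37 °C. Test compounds plus 3 μM co-corrector (final 0.1% DMSO) were then added for 20 h at 33 °C. Washed cells received HRP substrate, and luminescence was normalized between DMSO and 3 μM co-corrector controls.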

[2] = molecular target: T1, ΔF508-CFTR; experiment: CFTR cell surface levels using HRP-tagged ΔF508-CFTR expressing CFBE cells, intrinsic corrector capacity; assay type: cell-based; conditions: HRP-tagged ΔF508-CFTR CFBE41o- cells, compounds alone (intrinsic corrector capacity), 20 hours at 33° C.; for % Activation: positive control 3 μM corrector; for EC50: read-out: EC50
Outline: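 Here the cells express ΔF508-CFTR with horseradish peroxidase inserted in extracellular loop 4, so only rescued channel at the surface gives luminescent signal. Compounds act on their own, 20 h at the reduced temperature of 33 °C; values are percent activity relative to DMSO and a 3 μM corrector.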

T1 sequence (P13569 with tags, fused parts or gaps DEL508-508): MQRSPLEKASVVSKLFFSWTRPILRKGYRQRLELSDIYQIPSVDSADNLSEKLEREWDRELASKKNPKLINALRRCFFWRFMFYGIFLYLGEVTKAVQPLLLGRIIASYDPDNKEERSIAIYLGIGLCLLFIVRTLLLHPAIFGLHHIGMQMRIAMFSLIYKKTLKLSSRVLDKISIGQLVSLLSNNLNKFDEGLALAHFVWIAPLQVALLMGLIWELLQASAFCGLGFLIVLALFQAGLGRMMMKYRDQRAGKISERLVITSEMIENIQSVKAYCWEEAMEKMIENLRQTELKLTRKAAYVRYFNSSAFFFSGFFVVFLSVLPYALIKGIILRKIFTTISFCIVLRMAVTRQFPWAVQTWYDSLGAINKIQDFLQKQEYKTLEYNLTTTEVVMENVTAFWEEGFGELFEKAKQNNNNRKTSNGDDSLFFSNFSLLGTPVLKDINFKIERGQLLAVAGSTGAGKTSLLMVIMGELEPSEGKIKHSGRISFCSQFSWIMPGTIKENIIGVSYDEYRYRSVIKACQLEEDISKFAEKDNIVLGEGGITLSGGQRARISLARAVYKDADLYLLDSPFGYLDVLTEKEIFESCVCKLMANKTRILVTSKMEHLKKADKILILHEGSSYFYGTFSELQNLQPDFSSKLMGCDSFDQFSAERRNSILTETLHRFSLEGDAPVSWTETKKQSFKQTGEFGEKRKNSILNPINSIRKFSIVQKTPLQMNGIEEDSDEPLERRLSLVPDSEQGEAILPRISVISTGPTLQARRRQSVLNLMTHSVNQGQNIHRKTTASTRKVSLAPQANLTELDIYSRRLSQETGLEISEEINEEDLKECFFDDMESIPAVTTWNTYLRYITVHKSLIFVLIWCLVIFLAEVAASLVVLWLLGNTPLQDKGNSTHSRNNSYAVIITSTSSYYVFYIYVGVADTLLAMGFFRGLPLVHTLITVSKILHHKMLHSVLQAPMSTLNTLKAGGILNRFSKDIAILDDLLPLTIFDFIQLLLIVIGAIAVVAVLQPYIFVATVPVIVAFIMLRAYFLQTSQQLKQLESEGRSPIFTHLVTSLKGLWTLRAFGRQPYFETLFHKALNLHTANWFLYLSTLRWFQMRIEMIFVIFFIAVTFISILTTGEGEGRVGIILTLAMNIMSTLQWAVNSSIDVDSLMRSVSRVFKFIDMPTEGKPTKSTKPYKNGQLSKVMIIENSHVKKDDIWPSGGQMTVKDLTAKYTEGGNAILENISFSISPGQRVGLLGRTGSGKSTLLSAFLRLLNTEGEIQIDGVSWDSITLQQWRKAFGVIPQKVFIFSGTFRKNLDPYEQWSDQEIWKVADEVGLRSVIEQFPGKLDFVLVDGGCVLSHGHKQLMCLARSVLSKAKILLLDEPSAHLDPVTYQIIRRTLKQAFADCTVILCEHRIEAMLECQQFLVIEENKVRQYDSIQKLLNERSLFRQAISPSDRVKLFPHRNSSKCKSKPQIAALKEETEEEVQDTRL

SMILES	% Activation [1]	EC50 [1]	% Activation [2]	EC50 [2]
Cc1nn(-c2ccccc2)c2nc(C(=O)O)cc(-c3ccc(N4CCC(F)(F)CC4)cc3)c12 [compound 108, 4-[4-(4,4-difluoropiperidin-1-yl)phenyl]-3-methyl-1-phenyl-1H-pyrazolo[3,4-b]pyridine-6-carboxylic acid]	329.7%	752 nM	145.5%	904 nM
Cc1nn(-c2ccccc2)c2nc(C(=O)O)cc(-c3ccc(N4CCC(F)(F)C4)cc3)c12 [compound 111, 4-[4-(3,3-difluoropyrrolidin-1-yl)phenyl]-3-methyl-1-phenyl-1H-pyrazolo[3,4-b]pyridine-6-carboxylic acid]	299.8%	424 nM	110.34%	459 nM
Cc1nn(-c2ccccc2)c2nc(C(=O)O)cc(-c3ccc(NC4COC4)cc3)c12 [compound 112, 3-methyl-4-{4-[(oxetan-3-yl)amino]phenyl}-1-phenyl-1H-pyrazolo[3,4-b]pyridine-6-carboxylic acid]	378.1%	2370 nM	200.55%	2470 nM
Cc1nn(-c2ccccc2)c2nc(C(=O)O)cc(-c3ccc(N4CC(C)OC(C)C4)cc3)c12 (stereo not shown) [compound 114, 4-[4-(2,6-dimethylmorpholin-4-yl)phenyl]-3-methyl-1-phenyl-1H-pyrazolo[3,4-b]pyridine-6-carboxylic acid]	460.85%	1240 nM	251.05%	806 nM
Cc1nn(-c2ccccc2)c2nc(C(=O)O)cc(-c3ccc(N(C)C4CCC4)cc3)c12 [compound 115, 4-{4-[cyclobutyl(methyl)amino]phenyl}-3-methyl-1-phenyl-1H-pyrazolo[3,4-b]pyridine-6-carboxylic acid]	354%	1280 nM	152.3%	1870 nM
Cc1nn(-c2ccccc2)c2nc(C(=O)O)cc(-c3ccc(N4C[C@@H](O)[C@H](O)C4)cc3)c12 [compound 116, 4-{4-[(3R,4R)-3,4-dihydroxypyrrolidin-1-yl]phenyl}-3-methyl-1-phenyl-1H-pyrazolo[3,4-b]pyridine-6-carboxylic acid]	262.7%	3340 nM	81.72%	3340 nM
CC(C)c1nn(C2CCN(CC(F)(F)F)CC2)c2nc(C(=O)O)cc(-c3ccc(N4CCOCC4)cc3)c12 [compound 117, 4-[4-(morpholin-4-yl)phenyl]-3-(propan-2-yl)-1-[1-(2,2,2-trifluoroethyl)piperidin-4-yl]-1H-pyrazolo[3,4-b]pyridine-6-carboxylic acid]	229.45%	765 nM	70.77%	1100 nM
Cc1nn(-c2ccccc2)c2nc(C(=O)O)cc(N3CCOCC3)c12 [compound 118, 3-methyl-4-(morpholin-4-yl)-1-phenyl-1H-pyrazolo[3,4-b]pyridine-6-carboxylic acid]	165.25%	3340 nM	26.575%	6670 nM
Cc1nn(-c2ccccc2)c2nc(C(=O)O)cc(-c3ccc(N4CCOC(C)(C)C4)cc3)c12 [compound 119, 4-[4-(2,2-dimethylmorpholin-4-yl)phenyl]-3-methyl-1-phenyl-1H-pyrazolo[3,4-b]pyridine-6-carboxylic acid]	413.2%	624 nM	207.25%	915 nM
CC(C)c1nn(C2CCOC2)c2nc(C(=O)O)cc(-c3ccc(N4CCOCC4)cc3)c12 (stereo not shown) [compound 120, 4-[4-(morpholin-4-yl)phenyl]-1-(oxolan-3-yl)-3-(propan-2-yl)-1H-pyrazolo[3,4-b]pyridine-6-carboxylic acid]	231.45%	3140 nM	70.235%	3340 nM
CC(C)c1nn(-c2cccc(N3CCOCC3)c2)c2nc(C(=O)O)cc(-c3ccc(N4CCOCC4)cc3)c12 [compound 121, 1-[3-(morpholin-4-yl)phenyl]-4-[4-(morpholin-4-yl)phenyl]-3-(propan-2-yl)-1H-pyrazolo[3,4-b]pyridine-6-carboxylic acid]	603.1%	758 nM	401.5%	528 nM
Cc1nn(-c2ccccc2)c2nc(C(=O)O)cc(-c3ccc(N4CC(O)C4)cc3)c12 [compound 124, 4-[4-(3-hydroxyazetidin-1-yl)phenyl]-3-methyl-1-phenyl-1H-pyrazolo[3,4-b]pyridine-6-carboxylic acid]	371.1%	1880 nM	190.5%	3080 nM
Cc1nn(-c2ccccc2)c2nc(C(=O)O)cc(-c3ccc(N4CC5(COC5)C4)cc3)c12 [compound 126, 3-methyl-4-[4-(2-oxa-6-azaspiro[3.3]heptan-6-yl)phenyl]-1-phenyl-1H-pyrazolo[3,4-b]pyridine-6-carboxylic acid]	319.25%	837 nM	156.45%	1690 nM
Cc1nn(-c2ccccc2)c2nc(C(=O)O)cc(-c3ccc(N4C[C@@H]5C[C@H]4CO5)cc3)c12 [compound 127, 3-methyl-4-{4-[(1S,4S)-2-oxa-5-azabicyclo[2.2.1]heptan-5-yl]phenyl}-1-phenyl-1H-pyrazolo[3,4-b]pyridine-6-carboxylic acid]	401.3%	719 nM	221.4%	1790 nM
Cc1nn(-c2ccccc2)c2nc(C(=O)O)cc(C3=CCOCC3)c12 [compound 128, 4-(3,6-dihydro-2H-pyran-4-yl)-3-methyl-1-phenyl-1H-pyrazolo[3,4-b]pyridine-6-carboxylic acid]	175.85%	3340 nM	33.92%	3340 nM
CC1(c2nn(-c3ccccc3)c3nc(C(=O)O)cc(-c4ccc(N5CCOCC5)cc4)c23)CC1 [compound 129, 3-(1-methylcyclopropyl)-4-[4-(morpholin-4-yl)phenyl]-1-phenyl-1H-pyrazolo[3,4-b]pyridine-6-carboxylic acid]	380%	390 nM	178.3%	414 nM
CN(C)c1ccc(-c2cc(C(=O)O)nc3c2c(C(C)(C)C)nn3C2CCCCC2)cc1 [compound 131, 3-tert-butyl-1-cyclohexyl-4-[4-(dimethylamino)phenyl]-1H-pyrazolo[3,4-b]pyridine-6-carboxylic acid]	388.7%	620 nM	153.75%	899 nM
CC(=O)N1CCN(c2cc(C(=O)O)nc3c2c(C)nn3-c2ccccc2)CC1 [compound 132, 4-(4-acetylpiperazin-1-yl)-3-methyl-1-phenyl-1H-pyrazolo[3,4-b]pyridine-6-carboxylic acid]	156.4%	3340 nM	13.45%	> 10000 nM
Cc1nn(-c2ccccc2)c2nc(C(=O)O)cc(-c3ccc(N4CCOC(CO)C4)cc3)c12 (stereo not shown) [compound 133, 4-{4-[2-(hydroxymethyl)morpholin-4-yl]phenyl}-3-methyl-1-phenyl-1H-pyrazolo[3,4-b]pyridine-6-carboxylic acid]	280.3%	3340 nM	74.96%	3340 nM
